{"source": "patent US20210147932A1", "about": "“FLUORESCENT PROBES FOR QUANTIFICATION OF DNA DAMAGE AND REPAIR” (The Board of Trustees of the Leland Stanford Junior …, priority 2019, published 2021)", "molecules": {"B1": {"name": "UGI: the UNG inhibitor UGI; tight 1:1 binding stoichiometry; protein inhibitor (protein, UniProt P14739 1-84, looked up)", "Uracil-DNA glycosylase …": "MTNLSDIIEKETGKQLVIQESILMLPEEVEEVIGNKPESDILVHTAYDESTDENVMLLTSDAPEYKPWALVIQDSNGENKIKML"}}, "type_in_all_cases": "biochemical", "key": {"AP-DNA": {"test_system": "AP-DNA", "assay": "Oxime formation kinetics of probe with AP-DNA", "settings": "5 μM probe; for rate of oxime formation with AP DNA: Oligo 15 20 μM, 37° C.; for reaction rate of oxime formation relative to CCVJ1 (longer linker): 20 μM AP-DNA, 50 mM Tris pH 7.0", "description": "FIG. 3 provides representative plots for calculations of k2 for Compound (1) (CCVJ1) under various buffer conditions with oligo 15. Plots were fitted in OriginPro 8.5 according to the equation derived by Larsen et. al.^5 for second-order rate constants of oxime formation. Apparent second-order rate constants were calculated as the average of three replicates.\nFIG. 5A provides fluorescence real-times responses for oxime formation under varied conditions. The Time course of oxime formation between Compound (1) (CCVJ1) (5 μM) and AP-DNA (20 μM) under varied buffer conditions (50 mM) is shown. Ionic strength adjusted to 150 mM with NaCl\nNext the reaction rates with CCVJ1 were evaluated. To measure oxime formation kinetics, 5 μM CCVJ1 was reacted with 20 μM AP DNA, and the resulting fluorescence time course was used to determine second-order rate constants by nonlinear regression analysis. Tris buffer was selected since it is commonly used in glycosylase assays with a salt concentration of 100 mM NaCl.\nIn addition to Tris buffer, oxime formation kinetics were also measured for CCVJ1 with AP DNA in a solution of a catalytic amine buffer previously shown to accelerate oxime formation. To this end, it was employed 50 mM N,N-dimethylethylenediamine (DEDA)•HCl buffered to a pH of 7.0 in place of the above Tris buffers. […] Such rapid rates of oxime formation at neutral pH are unprecedented for unactivated aldehydes.\n(§1) In addition to the 5′ and 3′ neighboring bases, studies were done of the effect of the orphaned base Z paired opposite the abasic site on the UBER probe system (FIG. 10, panels C-D). Using the sequence where X=C and Y=G, the identity was varied of the base Z opposite the AP site. […] As a result, the smaller pyrimidine bases yielded a greater fluorescence light up response than the larger purine bases. It was also observed a strong effect by the opposing base on the rate of oxime formation (FIG. 10, panel D). […] This trend is in contrast to the neighboring base effect discussed above in which stronger stacking bases accelerated the rate of oxime formation.\n(§2) General procedure for creating AP site DNA: A deoxyuridine containing oligonucleotide (typically 5-20 μM) was treated with 10 U/mL E. coli UDG (New England Biolabs) for 10 minutes at 37° C. in buffer to create AP site containing DNA (see below for MALDI-TOF confirmation). The hairpin was then reacted with probe from a DMSO stock solution (final DMSO concentration <5%).\nFluorescence time courses: Unless otherwise stated, fluorescence time courses were collected on a Fluoroskan Ascent Microplate Fluorometer (Thermo Fisher Scientific) with black, non-binding 384 well plates (Greiner) at a reaction volume of 60 μL with 50 mM Tris buffer pH 7 (ionic strength adjusted to 100 mM with NaCl) with a fluorescein filter set (Ex. 485, Em. 538)."}, "[1]": {"test_system": "DNA AP site (AP site containing DNA, oligo 15)", "assay": "Fluorescence response of probe covalently attached to the AP site of a DNA hairpin", "settings": "for brightness when bound to the AP site compared to CCVJ1: Oligo 15 DNA", "description": "FIG. 2B provides emission spectra of oligonucleotide-probe conjugates compared to the emission spectra of the free probe at 2 μM concentration in 50 mM Tris buffer pH 7.0. Excitation was at 470 nm for Compound (1) (also referred to herein as CCVJ1) and 450 nm for Compounds 8 and 9 (also referred to herein as NP1 and NP2) and Compounds 4 and 6 (also referred to herein as BD1 and BD2).\nTo assess the potential fluorescence response of each probe, a 17mer DNA hairpin containing a single AP site was prepared and reacted it with a 10-fold excess of probe overnight. The subsequent DNA-probe conjugates were precipitated to remove excess fluorophore and full DNA labelling was confirmed by MALDI-TOF mass spectrometry (Table 1). The reacted DNAs were re-suspended in buffer to a concentration of 2 μM and the emission spectra compared with the spectra of the free probes in solution. […] In addition to its large fluorescence response, CCVJ1 is accessed readily through a facile 4-step synthesis and has good spectral overlap with fluorescein. This makes the probe accessible to a wide range of researchers and well suited to the majority of fluorescence-based instruments.\nas §1, §2\nProcedure for assessing fluorescence response of probes: To assess the fluorescence response of the probes, 25 μM AP site containing DNA (oligo 15) was prepared in a 20 μL solution and allowed to react with 500 μM of each probe overnight. The DNA was then precipitated by the addition of 80 μL 0.33 M sodium acetate and 300 μL ethanol and centrifuged at 21,100 g for 1 hr at 4° C. The resulting DNA pellet was washed twice with 70% EtOH and re-suspended in buffer to a concentration of 2 μM. A portion of the DNA pellet was used for MALDI-TOF analysis. The emission spectra of the probe-oligonucleotide conjugate was measured and compared against a 2 μM solution of the free probe"}, "AP site-containing DNA": {"test_system": "AP site-containing DNA", "assay": "Competition for oxime formation between CCVJ1 and AP site-containing DNA", "settings": "up to 500 μM linker, CCVJ1 5 μM, AP DNA 20 μM", "description": "FIG. 6 provides effect of adding exemplary linker NH2CH2CH2ONH2 to the reaction of Compound (1) (CCVJ1) (5 μM) with AP site containing DNA (20 μM) in buffer.\nFIG. 9 provides interaction between Compound (1) (CCVJ1) and DNA. […] (Ex. 485, Em. 538).\nFIG. 14 provides effect of competing aldehydes/ketones on maximum fluorescence signal.\nAdditional experiments were performed to study the origins of this unusually rapid reaction. […] To test the effect that proximity between the alkoxyamine and planar portion of the probe had on oxime kinetics in our probes, probes were synthesized having variable-length linkers (CCVJ2 and CCVJ3) from aldehyde reactive linkers L2 and L3 respectively (FIG. 2A). […] To test the importance of a double-stranded DNA structure to the rate and fluorescence response, an AP-containing single-stranded DNA oligonucleotide was reacted with CCVJ1. At pH 7, CCVJ1 reacted with a second-order rate constant of 33 M^−1s^−1 with the single-stranded substrate, roughly 5-fold slower than a double-stranded hairpin with identical sequence context (FIG. 8).\nTo further explore the hypothesis that the oxime rate acceleration in these AP-site DNAs was related to base stacking interactions, the fluorescence was measured of CCVJ1 in the presence and absence of a non-lesion containing DNA hairpin.\nSince the probe design involves conformational restriction to induce a light-up signal, it was hypothesized that off-target oxime formation with small molecules might induce a relatively small signal relative to DNA, thus providing a measure of selectivity in signaling. […] Another potential aspect is that ketones or aldehydes in the environment might compete with the DNA AP site to react with the aminooxy group, thereby consuming the free probe and reducing the maximum signal. Initial testing of the reactivity of CCVJ1 with AP site-containing DNA in the presence of increasing amounts of competing 2-deoxyribose, the closest small-molecule analogue to the DNA AP site. […] This was repeated this experiment with pyruvic acid, a highly reactive ketone and a common cellular metabolite."}, "OGG1": {"molecular_target": "T1, OGG1 (Homo sapiens, UniProt O15527)", "T1 construct": "host or cells: MCF-7 whole cell lysate", "T1 sequence (O15527 whole entry)": "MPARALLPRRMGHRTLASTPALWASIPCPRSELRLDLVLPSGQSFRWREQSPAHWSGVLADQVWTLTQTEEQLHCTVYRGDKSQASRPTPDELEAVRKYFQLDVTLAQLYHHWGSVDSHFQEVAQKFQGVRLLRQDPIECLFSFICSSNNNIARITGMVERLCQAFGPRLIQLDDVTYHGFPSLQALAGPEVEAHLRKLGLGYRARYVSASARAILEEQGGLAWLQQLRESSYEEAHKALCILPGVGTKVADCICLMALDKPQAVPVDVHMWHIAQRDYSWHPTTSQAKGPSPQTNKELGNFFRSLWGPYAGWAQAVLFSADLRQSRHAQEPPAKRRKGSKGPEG", "assay": "OGG1 activity in MCF7 lysates with CCVJ1", "settings": "MCF7 lysate 0.2 mg/mL, 4 h incubation, 25 μM CCVJ1", "description": "FIG. 20 provides fluorescence measurement of MCF7 cell lysates (0.2 mg/mL) with 25 μM Compound (1) (CCVJ1) following a 4-hour incubation with 5 μM of an OGG1 hairpin substrate. The inhibitor SU0268 was used to abrogate OGG1 activity. Error bars represent standard deviation of three replicates.\nEncouraged by the results, whether the UBER probe could detect endogenous glycosylase activity was tested from a more challenging target such as OGG1. It is well established that the turnover number of UNG is quite high (˜1-10 s^−1)^5 while the turnover number for many other glycosylases is quite low (0.001-0.1 s^−1). Additionally, most glycosylases, including OGG1, have very low basal expression levels in healthy cells. Given these facts, previous attempts to detect OGG1 activity in lysates have relied on a multistep signal amplification process or extended reaction times (24-48 hrs) to yield signal. […] In this case, the majority of the background signal observed was attributed to intercalation of probe into unreacted hairpin as well as genomic DNA.\n(§3) Cell Lysate Experiments: HeLa or MCF-7 whole cell lysates (Santa Cruz Biotech) were used without further preparation. […] Fluorescence intensity was monitored over the course of 4 hours at 37° C."}, "UNG [2]": {"molecular_target": "T2, UNG (Homo sapiens, UniProt P13051)", "T2 sequence (P13051 whole entry)": "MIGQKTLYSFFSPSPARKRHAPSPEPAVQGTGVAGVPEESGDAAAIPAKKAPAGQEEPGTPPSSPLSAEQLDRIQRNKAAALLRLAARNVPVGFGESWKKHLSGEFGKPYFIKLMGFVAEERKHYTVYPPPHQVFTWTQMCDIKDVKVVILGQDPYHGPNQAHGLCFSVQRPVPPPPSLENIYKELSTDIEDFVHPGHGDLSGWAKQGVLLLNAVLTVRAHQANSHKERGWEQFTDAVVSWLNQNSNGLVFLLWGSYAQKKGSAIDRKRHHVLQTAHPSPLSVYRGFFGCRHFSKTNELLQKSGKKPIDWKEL", "assay": "UGI IC50 measurement in UBER probe coupled assay", "set-up": "purchased OriGene", "settings": "UNG 5 nM, UGI 0.3 to 30 nM, initial rates after 25 minute delay, triplicate", "description": "FIG. 15, panels A-G provides quantitative coupled assays using Compound (1) (CCJV1). Shown are data from reaction of lesion containing substrates with UNG and SMUG1 (5 nM) (panel A), MPG (100 nM) (panel B), NTH1 (500 nM) (panel C), OGG1 (100 nM) in real-time (panel D) with lesion containing DNA (2 μM) and CCVJ1 (20 μM) (panels A, B and D) or lesion containing DNA (60 μM) and CCVJ1 (20 μM) […]. […] Delay time tss of 25 minutes indicated with dotted line.\nBased on the results of our neighboring base effect study, several glycosylase oligonucleotide substrates were purchased or prepared in which the identity of the base lesion X was varied to correspond to the known activities of different target glycosylases (FIG. 15, panel E). For these studies human enzymes SMUG1/UNG, OGG1, MPG and NTH1, were chosen which represent a diverse array of human glycosylases. […] Assays were carried out in a 60 μL volume in a 384 well format on a microplate reader using a fluorescein filter set. For each enzyme, it was possible to observe a robust fluorescence signal (FIG. 15, panels A-D).\nTo test the utility of the probe coupled assay for characterizing inhibitors, it was measured the IC50 value of the UNG inhibitor UGI (FIG. 15, panels F-G). […] In all cases, the z-factor of the assay was calculated to be >0.95, well above the threshold necessary for high throughput screening. […]"}, "UNG [3]": {"molecular_target": "T2, UNG", "assay": "UNG activity in HeLa cell lysate with CCVJ1", "set-up": "profile endogenous glycosylase activity in cell lysates; host or cells: HeLa whole cell lysate", "settings": "1 U/mL UGI, 0.2 mg/mL HeLa lysate, 5 μM hairpin, 25 μM CCVJ1", "description": "FIG. 19, panels A-B illustrates applications of an exemplary probe for measuring multiple repair activities in cell lysates. […] The inhibitor UGI was used at a concentration of 1 U/mL to completely abolish UNG activity. […] Activity was quantified by measuring initial rate velocity using 25 μM CCVJ1 with lysate (0.2 mg/mL) and 5 μM of UNG hairpin substrate.\nIt was first tested whether the UBER probe's ability to report on UNG activity in whole cell lysates using the previously described UNG hairpin substrate (FIG. 19, panel A). […] To confirm that the fluorescence response originated from endogenous UNG activity and not off-target binding with proteins or spontaneous depurination, lysate was treated with CCVJ1 and a control hairpin in which the lesion had been replaced by an undamaged T:A base pair. Importantly, the control hairpin yielded no fluorescence response indicating a low degree of false positive signal. […] CCVJ1 appears to represent the first fluorogenic probe to measure real-time UNG activity in cell lysates.\nas §3"}}}
{"molecule": "CN(C)c1ccc(S(=O)(=O)N(C)CCON)c2nonc12", "note": "[BD1]", "values": [{"measurement": "rate of oxime formation with AP DNA", "setting": "AP-DNA", "result": "accelerated rates of oxime formation"}, {"measurement": "fluorescence response with AP DNA", "setting": "[1]", "result": "substantial fluorescence responses"}]}
{"molecule": "CN(CCON)c1ccc(S(=O)(=O)N(C)C)c2nonc12", "note": "[BD2]", "values": [{"measurement": "rate of oxime formation with AP DNA", "setting": "AP-DNA", "result": "accelerated rates of oxime formation"}, {"measurement": "fluorescence response with AP DNA", "setting": "[1]", "result": "substantial fluorescence responses"}]}
{"molecule": "N#C/C(=C\\c1cc2c3c(c1)CCCN3CCC2)C(=O)NCCOCCON", "note": "[CCVJ2]", "values": [{"measurement": "reaction rate of oxime formation relative to CCVJ1 (longer linker)", "setting": "AP-DNA", "result": "slowed the reaction rate considerably"}, {"measurement": "brightness when bound to the AP site compared to CCVJ1", "setting": "[1]", "result": "diminished compared to that of CCVJ1"}]}
{"molecule": "N#C/C(=C\\c1cc2c3c(c1)CCCN3CCC2)C(=O)NCCOCCOCCON", "note": "[CCVJ3]", "values": [{"measurement": "reaction rate of oxime formation relative to CCVJ1 (longer linker)", "setting": "AP-DNA", "result": "slowed the reaction rate considerably"}, {"measurement": "brightness when bound to the AP site compared to CCVJ1", "setting": "[1]", "result": "diminished compared to that of CCVJ1"}]}
{"molecule": "NCCON", "note": "[Compound L1, NH2CH2CH2ONH2]", "values": [{"measurement": "effect as competing alpha nucleophile on reaction of CCVJ1 with AP DNA", "setting": "AP site-containing DNA", "result": "no effect"}, {"measurement": "effect as competing alpha nucleophile on reaction of CCVJ1 with AP DNA", "setting": "AP site-containing DNA; listed as NH2CH2CH2ONH2", "result": "does not significantly compete with CCVJ1 for oxime formation"}]}
{"molecule": "CN(CCON)c1ccc2c3c(cccc13)C(=O)N(CCC(=O)O)C2=O", "note": "[NP1]", "values": [{"measurement": "rate of oxime formation with AP DNA", "setting": "AP-DNA", "result": "accelerated rates of oxime formation"}, {"measurement": "fluorescence response with AP DNA", "setting": "[1]", "result": "substantial fluorescence responses"}]}
{"molecule": "NC(=O)c1cccc(-c2ccc(S(=O)(=O)Nc3ccc4c(c3)N(C(=O)C3CC3)CCC4)cc2)c1", "note": "[SU0268]", "values": [{"measurement": "effect of inhibitor on OGG1 repair activity in lysate", "setting": "OGG1", "result": "completely abolished OGG1 repair activity"}]}
{"molecule": "B1", "values": [{"measurement": "IC50", "setting": "UNG [2]", "result": "7.53 ± 0.44", "unit": "nM"}, {"measurement": "effect of inhibitor on fluorescence response (UNG activity) in lysate", "setting": "UNG [3]", "result": "completely ablated the fluorescence response"}]}
